Measurements from patent US6410560B1, “Drug for relieving pain and promoting the removal of calculi in urolithiasis” (Kissei Pharmaceutical Co., Ltd., priority 1995, dated 2002).

System: human ureteral smooth muscle
Experiment: Relaxation of 40 mM KCl-induced contraction of isolated human ureteral smooth muscle strips
Format: cell-based
Details: for ureteral relaxing effect: 40 mM KCl-induced tonic contraction, 10^−6 M phentolamine present, FIG. 1
Method: Measurement of the contractile force of the ureteral smooth muscle strip (1) Preparation of smooth muscle strips Specimens of human ureter were obtained from patients undergoing nephrectomy or total cystectomy. After the specimens were carefully dissected free from the surrounding fat tissues, they were cut into spiral strips. The ureteral strips of about 20 mm in length and 5 mm in width were prepared. (2) Experimental conditions Buffer solution; Locke's-solution No.2: NaCl (154 mM), KCl (5.6 mM), CaCl2 (2.1 mM), NaHCO3 (5.6 mM) and glucose (3.6 mM) Ureteral muscle strips without any spontaneous rhythmic contractions were used. An initial resting tension of about 1.0 g was placed. The actions of drugs against the 40 mM KCl-induced tonic contraction were evaluated in the presence of 10^−6 M phentolamine. […] The evaluation of drugs; The drug-induced relaxation was expressed as a percentage of the maximal relaxing response to 10^−5 M of isoproterenol. The ureteral tension before the treatment is indicated as 100%, and the tension after treatment of 10^−5 M of isoproterenol which produces maximal ureteral relaxation is indicated as 0%. According to the methods described above, the ureteral relaxing effects of the drug were measured using the human ureteral smooth muscle strips. According to the method described above, the interaction between a β-adrenoceptor stimulant and a β-adrenoceptor blocker was evaluated in human ureteral smooth muscle strips using the following drugs.

In the case of `Cc1ccc(OCC(O)C(C)NC(C)C)c2c1CCC2.Cl` (racemic) [ICI-118,551, (±)-1-[(2,3-dihydro-7-methyl-1H-inden-4-yl)oxy]-3-[(1-methylethyl)amino]-2-butanol hydrochloride], the “blocking of isoproterenol-induced ureteral relaxation” value (40 mM KCl contraction, ICI-118,551 100 nM pre-treatment, FIG. 2) is reported as “attenuated the isoproterenol-induced ureteral relaxation, but did not completely block”.

With `CC(C)NCC(O)c1ccc(O)c(O)c1` (centres unmarked) [isoproterenol] the “relaxation produced by isoproterenol in the presence of ICI-118,551” value (40 mM KCl contraction, pre-treatment with 100 nM ICI-118,551, relative to maximal relaxation by 10^−5 M isoproterenol alone, FIG. 2) was “about 50%” and the ureteral relaxing effect was “showed a more potent relaxing effect”.

In the case of `CCC(NC(C)C)C(O)c1ccc(O)c2[nH]c(=O)ccc12` (centres unmarked) [procaterol], the ureteral relaxing effect is reported as “produced apparent ureteral relaxation”.

With `CC(C)(C)NCC(O)COc1cccc2[nH]c(=O)[nH]c12.Cl` (racemic) [CGP-12,177A, (±)-4-[3-[(1,1-dimethylethyl)amino]-2-hydroxypropoxy]-1,3-dihydro-2H-benzimidazol-2-one hydrochloride] the ureteral relaxing effect was “produced apparent ureteral relaxation”.
